Laboratory results as given in ChEMBL document CHEMBL1122800, “Synthesis of a tricyclic aphidicolin analogue that inhibits DNA synthesis in vitro” (J Med Chem, 1984).
Active and inactive are the calls of the source. The calls are words filed in the database; no cut-off is given here.

system: Nucleic Acid; experiment: Ability of compound to inhibit DNA synthesis against the uptake of [3H]thymidine in freshly seeded cultures of SV-40 transformed WI-38 human lung fibroblast at a concentration 0.15 ug/mL.

| Compound | inhibition [%] |
| --- | --- |
| C[C@@]1(CO)C(O)CC[C@]2(C)C3CC(O)CC3CC[C@@H]12 (some centres not stated) | 50 |
| C[C@@]1(CO)[C@H](O)CC[C@@]2(C)[C@H]1CC[C@H]1C[C@@H]3C[C@@]12CC[C@]3(O)CO | 50 |

system: Nucleic Acid; experiment: Ability of compound to inhibit DNA synthesis against the uptake of [3H]thymidine in freshly seeded cultures of SV-40 transformed WI-38 human lung fibroblast; NA = no activity

| Compound | inhibition |
| --- | --- |
| C[C@]12CCC(O)[C@@](C)(CO)[C@@H]1CCC1CC(=O)C[C@@H]12 (some centres not stated) | inactive |
| C[C@]12CCC(O)[C@@](C)(CO)[C@@H]1CCC1CC(O)C=C12 (some centres not stated) | inactive |
| C[C@]12CCC(O)[C@@](C)(CO)[C@@H]1CCC1CC(=O)C=C12 (some centres not stated) | inactive |
| C[C@@]1(CO)C(O)CC[C@]2(C)C3CC(=O)CC3CC[C@@H]12 (some centres not stated) | inactive |
| C[C@]12CCC(O)[C@@](C)(CO)[C@@H]1CCC1C[C@H](O)C[C@@H]12 (some centres not stated) | inactive |
